Measured values: PubChem BioAssay AID2060901 (Molecular Pharmacology Branch, DTP, NCI, 2025)

Tested on: 422866-222-R5-J1-PDC complex spheroids viability
Experiment: Anticancer human tumor 422866-222-R5-J1-PDC patient-derived pancreatic adenocarcinoma cell line growth inhibition [RAS]
Conditions: for IC50: curve of first compound; for viability, T/C: stronger effect = lower value; active means viability on the fitted dose curve at most 10% of control; inactive means the rest
Outline: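 Multi-cell-type spheroids: tumor cells plus HUVEC endothelial cells and mesenchymal stem cells. RAS-pathway inhibitors were combined with targeted agents, each dosed in half-log steps down from clinical Cmax, or from 10 microM when Cmax was unknown.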
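Further: spheroids exposed to compounds for 7 days.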
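Wherever viability, T/C is given: 100% = DMSO vehicle control viability.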

C[C@@H](NC(=O)c1ncnc(N)c1Cl)c1ncc(C(=O)Nc2cc(C(F)(F)F)c(Cl)cn2)s1 + C#Cc1c(F)ccc2cc(O)cc(-c3ncc4c(N5CC6CCC(C5)N6)nc(OCC56CCCN5CC(F)C6)nc4c3F)c12
< 31.6 nM: IC50 (second compound 1 µM) | IC50 (second compound 3.16 µM) | IC50 (second compound 10 µM)
inactive: viability, T/C (second compound 0.0316 µM, first compound 0.0316 µM) 108% | viability, T/C (second compound 0.0316 µM, first compound 0.1 µM) 114% | viability, T/C (second compound 0.0316 µM, first compound 0.316 µM) 106% | viability, T/C (second compound 0.0316 µM, first compound 1 µM) 117% | viability, T/C (second compound 0.0316 µM, first compound 3.16 µM) 89% | viability, T/C (second compound 0.0316 µM, first compound 10 µM) 57% | viability, T/C (second compound 0.1 µM, first compound 0.0316 µM) 103% | viability, T/C (second compound 0.1 µM, first compound 0.1 µM) 88.3% | viability, T/C (second compound 0.1 µM, first compound 0.316 µM) 89.2% | viability, T/C (second compound 0.1 µM, first compound 1 µM) 74% | viability, T/C (second compound 0.1 µM, first compound 3.16 µM) 85.3% | viability, T/C (second compound 0.1 µM, first compound 10 µM) 58.3% | viability, T/C (second compound 0.316 µM, first compound 0.0316 µM) 68.8% | viability, T/C (second compound 0.316 µM, first compound 0.1 µM) 67% | viability, T/C (second compound 0.316 µM, first compound 0.316 µM) 72.2% | viability, T/C (second compound 0.316 µM, first compound 1 µM) 55% | viability, T/C (second compound 0.316 µM, first compound 3.16 µM) 72.8% | viability, T/C (second compound 0.316 µM, first compound 10 µM) 48.1% | viability, T/C (second compound 1 µM, first compound 0.0316 µM) 43% | viability, T/C (second compound 1 µM, first compound 0.1 µM) 44.5% | viability, T/C (second compound 1 µM, first compound 0.316 µM) 45.4% | viability, T/C (second compound 1 µM, first compound 1 µM) 39.7% | viability, T/C (second compound 1 µM, first compound 3.16 µM) 49.6% | viability, T/C (second compound 1 µM, first compound 10 µM) 46.7% | viability, T/C (second compound 3.16 µM, first compound 0.0316 µM) 29% | viability, T/C (second compound 3.16 µM, first compound 0.1 µM) 28.4% | viability, T/C (second compound 3.16 µM, first compound 0.316 µM) 40.1% | viability, T/C (second compound 3.16 µM, first compound 1 µM) 28.3% | viability, T/C (second compound 3.16 µM, first compound 3.16 µM) 33.1% | viability, T/C (second compound 3.16 µM, first compound 10 µM) 27.9% | viability, T/C (second compound 10 µM, first compound 0.0316 µM) 24.3% | viability, T/C (second compound 10 µM, first compound 0.1 µM) 22.6% | viability, T/C (second compound 10 µM, first compound 0.316 µM) 24.8% | viability, T/C (second compound 10 µM, first compound 1 µM) 24.4% | viability, T/C (second compound 10 µM, first compound 3.16 µM) 23.9% | viability, T/C (second compound 10 µM, first compound 10 µM) 24.5%
> 10000 nM: IC50 (second compound 0.0316 µM) | IC50 (second compound 0.1 µM) | IC50 (second compound 0.316 µM)

CCc1c2c(nc3ccc(O)cc13)-c1cc3c(c(=O)n1C2)COC(=O)[C@]3(O)CC + C#Cc1c(F)ccc2cc(O)cc(-c3ncc4c(N5CC6CCC(C5)N6)nc(OCC56CCCN5CC(F)C6)nc4c3F)c12
2.85 nM: IC50 (second compound 0.0316 µM)
inactive: viability, T/C (second compound 0.0316 µM, first compound 0.000949 µM) 80.6% | viability, T/C (second compound 0.0316 µM, first compound 0.003 µM) 49.4% | viability, T/C (second compound 0.0316 µM, first compound 0.00949 µM) 39.9% | viability, T/C (second compound 0.0316 µM, first compound 0.03 µM) 41.9% | viability, T/C (second compound 0.0316 µM, first compound 0.0949 µM) 48.5% | viability, T/C (second compound 0.0316 µM, first compound 0.3 µM) 45.5% | viability, T/C (second compound 0.1 µM, first compound 0.000949 µM) 75.2% | viability, T/C (second compound 0.1 µM, first compound 0.003 µM) 49.4% | viability, T/C (second compound 0.1 µM, first compound 0.00949 µM) 35.2% | viability, T/C (second compound 0.1 µM, first compound 0.03 µM) 49.8% | viability, T/C (second compound 0.1 µM, first compound 0.0949 µM) 58.4% | viability, T/C (second compound 0.1 µM, first compound 0.3 µM) 36.1% | viability, T/C (second compound 0.316 µM, first compound 0.000949 µM) 65.4% | viability, T/C (second compound 0.316 µM, first compound 0.003 µM) 36.4% | viability, T/C (second compound 0.316 µM, first compound 0.00949 µM) 49.8% | viability, T/C (second compound 0.316 µM, first compound 0.03 µM) 56.5% | viability, T/C (second compound 0.316 µM, first compound 0.0949 µM) 49.2% | viability, T/C (second compound 0.316 µM, first compound 0.3 µM) 34.7% | viability, T/C (second compound 1 µM, first compound 0.000949 µM) 48.6% | viability, T/C (second compound 1 µM, first compound 0.003 µM) 35.9% | viability, T/C (second compound 1 µM, first compound 0.00949 µM) 35.4% | viability, T/C (second compound 1 µM, first compound 0.03 µM) 38.2% | viability, T/C (second compound 1 µM, first compound 0.0949 µM) 53.3% | viability, T/C (second compound 1 µM, first compound 0.3 µM) 31.2% | viability, T/C (second compound 3.16 µM, first compound 0.000949 µM) 26.3% | viability, T/C (second compound 3.16 µM, first compound 0.003 µM) 28.7% | viability, T/C (second compound 3.16 µM, first compound 0.00949 µM) 22.4% | viability, T/C (second compound 3.16 µM, first compound 0.03 µM) 22.9% | viability, T/C (second compound 3.16 µM, first compound 0.0949 µM) 25.6% | viability, T/C (second compound 3.16 µM, first compound 0.3 µM) 25.1% | viability, T/C (second compound 10 µM, first compound 0.000949 µM) 23% | viability, T/C (second compound 10 µM, first compound 0.003 µM) 21% | viability, T/C (second compound 10 µM, first compound 0.00949 µM) 20.7% | viability, T/C (second compound 10 µM, first compound 0.03 µM) 18.1% | viability, T/C (second compound 10 µM, first compound 0.0949 µM) 19.5% | viability, T/C (second compound 10 µM, first compound 0.3 µM) 13.5%
95.2 nM: IC50 (second compound 0.316 µM)
< 0.949 nM: IC50 (second compound 1 µM) | IC50 (second compound 3.16 µM) | IC50 (second compound 10 µM)
2.74 nM: IC50 (second compound 0.1 µM)

C[C@@H](NC(=O)c1ncnc(N)c1Cl)c1ncc(C(=O)Nc2cc(C(F)(F)F)c(Cl)cn2)s1 + CCn1c(-c2cccnc2C(C)OC)c2c3cc(ccc31)N1CCOC(CC(NC(=O)C(C(C)C)N(C)C(=O)C3(F)CCN(C(=O)C#CC(C)(C)N(C)C)CC3)C(=O)N3CCCC(N3)C(=O)OCC(C)(C)C2)C1
inactive: viability, T/C (second compound 0.000949 µM, first compound 0.0316 µM) 32% | viability, T/C (second compound 0.000949 µM, first compound 0.1 µM) 30.9% | viability, T/C (second compound 0.000949 µM, first compound 0.316 µM) 30.3% | viability, T/C (second compound 0.000949 µM, first compound 1 µM) 32.5% | viability, T/C (second compound 0.000949 µM, first compound 3.16 µM) 29% | viability, T/C (second compound 0.000949 µM, first compound 10 µM) 37% | viability, T/C (second compound 0.003 µM, first compound 0.0316 µM) 25.3% | viability, T/C (second compound 0.003 µM, first compound 0.1 µM) 24% | viability, T/C (second compound 0.003 µM, first compound 0.316 µM) 28.5% | viability, T/C (second compound 0.003 µM, first compound 1 µM) 25.6% | viability, T/C (second compound 0.003 µM, first compound 3.16 µM) 25.5% | viability, T/C (second compound 0.003 µM, first compound 10 µM) 26.3% | viability, T/C (second compound 0.00949 µM, first compound 0.0316 µM) 26.9% | viability, T/C (second compound 0.00949 µM, first compound 0.1 µM) 23.2% | viability, T/C (second compound 0.00949 µM, first compound 0.316 µM) 23.7% | viability, T/C (second compound 0.00949 µM, first compound 1 µM) 22.2% | viability, T/C (second compound 0.00949 µM, first compound 3.16 µM) 24.6% | viability, T/C (second compound 0.00949 µM, first compound 10 µM) 23.6% | viability, T/C (second compound 0.03 µM, first compound 0.0316 µM) 24.7% | viability, T/C (second compound 0.03 µM, first compound 0.1 µM) 19.7% | viability, T/C (second compound 0.03 µM, first compound 0.316 µM) 22.7% | viability, T/C (second compound 0.03 µM, first compound 1 µM) 21.7% | viability, T/C (second compound 0.03 µM, first compound 3.16 µM) 25.2% | viability, T/C (second compound 0.03 µM, first compound 10 µM) 21% | viability, T/C (second compound 0.0949 µM, first compound 0.0316 µM) 17.8% | viability, T/C (second compound 0.0949 µM, first compound 0.1 µM) 18.4% | viability, T/C (second compound 0.0949 µM, first compound 0.316 µM) 21.8% | viability, T/C (second compound 0.0949 µM, first compound 1 µM) 20.2% | viability, T/C (second compound 0.0949 µM, first compound 3.16 µM) 20.7% | viability, T/C (second compound 0.0949 µM, first compound 10 µM) 21.7% | viability, T/C (second compound 0.3 µM, first compound 0.0316 µM) 18% | viability, T/C (second compound 0.3 µM, first compound 0.1 µM) 17.8% | viability, T/C (second compound 0.3 µM, first compound 0.316 µM) 21.5% | viability, T/C (second compound 0.3 µM, first compound 1 µM) 20% | viability, T/C (second compound 0.3 µM, first compound 3.16 µM) 21.7% | viability, T/C (second compound 0.3 µM, first compound 10 µM) 26.1%
< 31.6 nM: IC50 (second compound 0.000949 µM) | IC50 (second compound 0.003 µM) | IC50 (second compound 0.00949 µM) | IC50 (second compound 0.03 µM) | IC50 (second compound 0.0949 µM) | IC50 (second compound 0.3 µM)
